Reference: ChEMBL document CHEMBL1201862, “PubChem BioAssay data set” (2004)
Calls of active or inactive are those of the source.

What was measured:
[1] = biological target: T1, Cytochrome P450 1A2 (Homo sapiens, UniProt P05177);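 note: PubChem cytochrome P450 panel assay, CYP1A2 panel member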
T1 sequence (P05177 whole entry): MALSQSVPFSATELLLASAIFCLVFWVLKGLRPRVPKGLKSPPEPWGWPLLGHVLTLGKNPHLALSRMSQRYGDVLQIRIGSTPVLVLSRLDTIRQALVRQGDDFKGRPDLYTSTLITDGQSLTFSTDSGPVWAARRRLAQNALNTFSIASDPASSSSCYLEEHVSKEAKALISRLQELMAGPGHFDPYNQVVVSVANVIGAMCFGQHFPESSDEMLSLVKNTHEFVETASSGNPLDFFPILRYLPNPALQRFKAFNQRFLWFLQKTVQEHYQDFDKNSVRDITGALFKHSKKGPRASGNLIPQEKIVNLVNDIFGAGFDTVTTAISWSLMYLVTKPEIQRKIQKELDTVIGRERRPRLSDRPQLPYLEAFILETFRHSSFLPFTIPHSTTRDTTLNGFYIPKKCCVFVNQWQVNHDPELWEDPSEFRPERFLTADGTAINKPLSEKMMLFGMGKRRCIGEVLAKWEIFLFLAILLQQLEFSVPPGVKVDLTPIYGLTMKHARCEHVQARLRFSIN

[2] = biological target: Cytochrome P450 3A4 (Homo sapiens, UniProt P08684);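 note: CYP3A4 tested as one member of a cytochrome P450 panel screen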
[3] = biological target: Cytochrome P450 2D6 (Homo sapiens, UniProt P10635);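 note: CYP2D6 member of a cytochrome P450 panel assay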
[4] = biological target: T2, Heat shock factor protein 1 (Mus musculus, UniProt P38532); test: inhibition of MG132-induced HSE-luciferase signal, confirmation, cell-based, NIH3T3, luminescence, dose retest (AID 2382); assay type: functional;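 note: NIH3T3 fibroblasts with HSF1-driven luciferase reporter stressed by proteasome inhibitor MG132; luminescence from HSF1-driven luciferase expression after 8 hours of MG132 stress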
T2 sequence (P38532 whole entry): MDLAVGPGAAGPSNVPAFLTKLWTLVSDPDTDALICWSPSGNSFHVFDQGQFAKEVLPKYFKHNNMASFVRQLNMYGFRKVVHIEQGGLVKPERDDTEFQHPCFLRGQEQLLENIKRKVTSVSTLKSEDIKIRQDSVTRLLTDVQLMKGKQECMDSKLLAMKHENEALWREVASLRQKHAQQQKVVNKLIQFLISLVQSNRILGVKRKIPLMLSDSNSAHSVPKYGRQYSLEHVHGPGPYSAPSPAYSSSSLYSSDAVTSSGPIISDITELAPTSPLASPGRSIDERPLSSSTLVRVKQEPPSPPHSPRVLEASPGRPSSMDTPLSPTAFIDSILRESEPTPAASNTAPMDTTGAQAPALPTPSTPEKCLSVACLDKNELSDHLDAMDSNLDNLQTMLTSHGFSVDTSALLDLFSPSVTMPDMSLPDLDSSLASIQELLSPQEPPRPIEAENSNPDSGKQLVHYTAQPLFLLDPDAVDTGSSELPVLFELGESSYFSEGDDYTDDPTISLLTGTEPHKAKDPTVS

[5] = biological target: T3, Corticotropin-releasing factor receptor 2/Corticotropin-releasing factor-binding protein (Homo sapiens, UniProt P24387+Q13324); test: activators of CRF receptor 2 with binding protein – uHTS hits, confirmation (AID 602473); assay type: functional; details: read-out: EC50_Mean
T3 sequence (Q13324 whole entry): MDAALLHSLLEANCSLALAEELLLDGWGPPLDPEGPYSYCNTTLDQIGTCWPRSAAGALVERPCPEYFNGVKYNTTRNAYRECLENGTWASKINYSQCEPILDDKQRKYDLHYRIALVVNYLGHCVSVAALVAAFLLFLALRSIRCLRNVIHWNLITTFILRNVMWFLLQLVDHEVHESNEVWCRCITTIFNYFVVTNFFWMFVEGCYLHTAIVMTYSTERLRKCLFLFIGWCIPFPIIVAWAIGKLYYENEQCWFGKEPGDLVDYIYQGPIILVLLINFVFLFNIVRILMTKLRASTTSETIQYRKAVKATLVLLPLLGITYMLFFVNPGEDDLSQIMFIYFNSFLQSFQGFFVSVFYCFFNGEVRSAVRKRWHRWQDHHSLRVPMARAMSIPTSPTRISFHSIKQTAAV
T3 sequence (P24387 whole entry): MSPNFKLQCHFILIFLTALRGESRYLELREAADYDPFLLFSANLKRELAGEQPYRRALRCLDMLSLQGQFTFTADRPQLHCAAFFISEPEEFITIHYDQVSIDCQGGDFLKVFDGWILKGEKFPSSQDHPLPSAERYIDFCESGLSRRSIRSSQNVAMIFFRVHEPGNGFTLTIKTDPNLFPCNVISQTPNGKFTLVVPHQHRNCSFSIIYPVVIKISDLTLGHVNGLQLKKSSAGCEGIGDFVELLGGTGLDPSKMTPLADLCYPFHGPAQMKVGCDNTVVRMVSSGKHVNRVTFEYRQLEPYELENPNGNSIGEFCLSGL

[6] = biological target: T3, Corticotropin-releasing factor receptor 2/Corticotropin-releasing factor-binding protein; test: Dose Response confirmation of uHTS hits for small molecule antagonists of the CRF-binding protein and CRF-R2 receptor complex.; assay type: functional; details: read-out: IC50_Mean
[7] = biological target: Cytochrome P450 2C9 (Homo sapiens, UniProt P11712)
[8] = biological target: Cytochrome P450 2C19 (Homo sapiens, UniProt P33261); test: Cytochrome panel assay with activity outcomes. Panel member name: p450-cyp2c19 Compounds with AC50 equal or less than 10 uM are considered active; assay type: functional; details: read-out: AC50
Sequence of Cytochrome P450 2C19 (P33261 whole entry): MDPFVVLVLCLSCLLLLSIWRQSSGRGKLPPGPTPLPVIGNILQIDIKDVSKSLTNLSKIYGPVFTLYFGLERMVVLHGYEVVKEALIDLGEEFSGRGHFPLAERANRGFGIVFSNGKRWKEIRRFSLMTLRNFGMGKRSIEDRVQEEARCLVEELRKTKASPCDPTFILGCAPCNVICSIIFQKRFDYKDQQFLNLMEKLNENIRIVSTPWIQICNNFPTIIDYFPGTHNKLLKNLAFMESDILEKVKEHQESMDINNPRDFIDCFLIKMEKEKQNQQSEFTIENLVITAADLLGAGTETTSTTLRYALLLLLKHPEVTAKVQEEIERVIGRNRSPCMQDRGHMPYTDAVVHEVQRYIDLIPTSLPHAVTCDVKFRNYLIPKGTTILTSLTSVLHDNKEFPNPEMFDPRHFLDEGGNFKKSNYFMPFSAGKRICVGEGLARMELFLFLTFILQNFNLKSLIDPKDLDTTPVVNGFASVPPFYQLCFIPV

Sequence of Cytochrome P450 3A4 (P08684 whole entry): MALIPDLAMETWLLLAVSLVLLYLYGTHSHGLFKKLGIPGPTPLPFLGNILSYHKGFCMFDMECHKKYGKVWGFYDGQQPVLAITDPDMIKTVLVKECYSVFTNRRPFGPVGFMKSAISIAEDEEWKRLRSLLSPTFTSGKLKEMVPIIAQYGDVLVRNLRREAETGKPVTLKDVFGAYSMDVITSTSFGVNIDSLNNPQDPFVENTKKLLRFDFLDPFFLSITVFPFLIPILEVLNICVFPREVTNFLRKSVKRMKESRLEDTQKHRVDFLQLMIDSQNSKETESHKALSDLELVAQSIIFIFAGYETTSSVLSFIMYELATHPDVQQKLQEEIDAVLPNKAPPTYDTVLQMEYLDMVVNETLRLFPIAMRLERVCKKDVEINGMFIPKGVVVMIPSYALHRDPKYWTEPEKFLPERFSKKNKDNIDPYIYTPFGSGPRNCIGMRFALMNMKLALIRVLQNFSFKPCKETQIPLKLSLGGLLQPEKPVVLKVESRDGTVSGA
Sequence of Cytochrome P450 2C9 (P11712 whole entry): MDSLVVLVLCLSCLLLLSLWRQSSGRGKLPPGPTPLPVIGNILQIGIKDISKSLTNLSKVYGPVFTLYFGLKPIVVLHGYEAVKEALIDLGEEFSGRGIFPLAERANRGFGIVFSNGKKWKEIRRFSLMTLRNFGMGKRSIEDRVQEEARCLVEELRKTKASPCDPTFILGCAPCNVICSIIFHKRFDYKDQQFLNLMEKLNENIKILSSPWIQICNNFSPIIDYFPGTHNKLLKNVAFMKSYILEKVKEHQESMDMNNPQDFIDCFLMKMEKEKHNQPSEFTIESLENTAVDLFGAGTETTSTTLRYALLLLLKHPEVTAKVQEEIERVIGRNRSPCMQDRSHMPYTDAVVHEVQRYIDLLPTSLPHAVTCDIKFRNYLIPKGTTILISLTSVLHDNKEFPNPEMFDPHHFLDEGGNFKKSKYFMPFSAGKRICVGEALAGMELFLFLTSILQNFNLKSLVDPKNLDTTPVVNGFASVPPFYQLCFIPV
Sequence of Cytochrome P450 2D6 (P10635 whole entry): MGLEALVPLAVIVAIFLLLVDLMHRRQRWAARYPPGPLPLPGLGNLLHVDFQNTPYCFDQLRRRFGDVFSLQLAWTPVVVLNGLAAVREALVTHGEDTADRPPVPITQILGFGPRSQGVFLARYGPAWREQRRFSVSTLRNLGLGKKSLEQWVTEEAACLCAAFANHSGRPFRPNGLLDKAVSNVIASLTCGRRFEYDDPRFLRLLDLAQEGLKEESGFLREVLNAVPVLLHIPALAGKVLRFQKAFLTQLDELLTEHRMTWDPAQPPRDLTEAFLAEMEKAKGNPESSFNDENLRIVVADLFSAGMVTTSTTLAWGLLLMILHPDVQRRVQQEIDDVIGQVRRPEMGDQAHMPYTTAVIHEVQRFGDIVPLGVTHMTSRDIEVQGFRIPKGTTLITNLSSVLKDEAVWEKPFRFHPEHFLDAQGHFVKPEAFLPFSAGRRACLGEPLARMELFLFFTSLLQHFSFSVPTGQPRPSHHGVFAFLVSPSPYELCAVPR

SMILES: CCCCCC(=O)O[C@H](CC(=O)O)C[N+](C)(C)C
- AC50 [1]: 31.6 µM (inconclusive)

SMILES: Cc1ccc(-n2c(S)nnc2-c2cc(C)n(C)n2)cc1
- AC50 [1]: 28.2 µM (inconclusive)

SMILES: Cc1nc2ccccn2c1C(=O)CSc1ccccc1Cl
- AC50 [2]: 12.6 µM (inconclusive)
- AC50 [3]: 25.1 µM (inconclusive)

SMILES: CCOc1ccc(NC(=O)c2cccnc2C(=O)O)cc1
- EC50 [4]: > 195 µM (not active)

SMILES: O=C(CSc1nnc(CCc2ccccc2)n1-c1ccc(Cl)cc1)c1ccccc1
- EC50 [4]: > 195 µM (not active)

SMILES: COc1ccc(OC)c(NC(S)=NCc2cccnc2)c1
- EC50 [4]: > 195 µM (not active)

SMILES: Cn1cc(CN2CCCC(C(=O)Nc3cccc(-c4cc5ccccc5[nH]4)c3)C2)cn1 (centres undefined)
- EC50 [5]: 42.9 µM (active)
- IC50 [6]: > 47.1 µM (inactive)

SMILES: COc1ccc(C2=NCCn3nc4cc([N+](=O)[O-])ccc4c32)cc1
- EC50 [4]: > 195 µM (not active)

SMILES: COCCCN(Cc1ccco1)C(=O)CSc1nc2ccc[nH]c-2n1
- EC50 [4]: > 195 µM (not active)

SMILES: COC(=O)CN1C(=O)Nc2ccc(C)cc2C1c1ccccc1 (centres undefined)
- EC50 [4]: > 195 µM (not active)

SMILES: COc1ccc(S(=O)(=O)Nc2ccccc2C(=O)N2CCOCC2)cc1Cl
- EC50 [4]: 46 µM (active)

SMILES: CCC(=O)N(C)/C=C1\Sc2ccccc2C1=O
- AC50 [7]: 12.6 µM (inconclusive)
- AC50 [2]: 14.1 µM (inconclusive)

SMILES: Cc1cnc(CNc2nc(-c3ccccc3C)nc3ccccc23)cn1
- AC50 [2]: 10 µM (inconclusive)
- AC50 [3]: 39.8 µM (inconclusive)

SMILES: O=C(c1cccc(F)c1)N1CCC[C@@]2(CCN(Cc3nccs3)C2)C1
- AC50 [3]: 20 µM (inconclusive)
- AC50 [1]: 12.6 µM (inconclusive)

SMILES: O=C(Nc1ccccc1)c1ccccc1OCc1cccc([N+](=O)[O-])c1
- EC50 [5]: > 53 µM (inactive)
- IC50 [6]: > 47.1 µM (inactive)

SMILES: O=C(COc1cccnc1[N+](=O)[O-])Nc1cc(S(=O)(=O)N2CCCCC2)ccc1Cl
- EC50 [4]: > 195 µM (not active)

SMILES: O=C(O)c1cc(-c2ccc3cc4c(cc3c2)OCO4)nc2ccccc12
- AC50 [1]: 3.16 µM (inconclusive)

SMILES: O=C(O)c1ccc(NCc2nc3cc4ccccc4cc3[nH]2)cc1
- AC50 [1]: 5.01 µM (inconclusive)

SMILES: COc1ccccc1CNC(=O)Cn1nnc(-c2ccncc2)n1
- AC50 [2]: 3.16 µM (inconclusive)
- AC50 [3]: 2.24 µM (inconclusive)

SMILES: Cc1cccc(N2C(=O)NC(=O)/C(=C\c3ccc(N4CCOCC4)cc3)C2=O)c1
- EC50 [5]: > 53 µM (inactive)
- IC50 [6]: > 47.1 µM (inactive)

SMILES: Cc1ccc(NC(=O)C2CCCN2S(=O)(=O)c2ccc3c(c2)n(C)c(=O)c(=O)n3C)cc1C (centres undefined)
- EC50 [4]: > 195 µM (not active)

SMILES: CN1CCN(c2ncc3ncc(=O)n(CCc4ccccc4)c3n2)CC1
- AC50 [2]: 15.8 µM (inconclusive)
- AC50 [3]: 20 µM (inconclusive)

SMILES: Cc1cc(C)c(NC(=O)CSc2nnc(Cc3cccn3C)n2-c2ccc(F)cc2)c(C)c1
- AC50 [1]: 2.51 µM (inconclusive)
- AC50 [8]: 28.2 µM (inconclusive)

SMILES: CCCOc1ccc(N2CC(C(=O)NC(C)C)CC2=O)cc1 (centres undefined)
- EC50 [4]: > 195 µM (not active)

SMILES: COCCn1c(=O)c(-c2cc(F)cc(F)c2)nc2cnc(N3CCN(C)CC3)nc21
- AC50 [7]: 39.8 µM (inconclusive)
- AC50 [1]: 15.8 µM (inconclusive)

SMILES: COc1ccccc1CN1CC2(CCN(C(=O)c3cnccn3)CC2)C1
- AC50 [2]: 20 µM (inconclusive)

SMILES: COc1ccc(Cc2nnc(NC(=O)Nc3ccc(C)cc3)s2)cc1OC
- EC50 [5]: > 53 µM (inactive)
- IC50 [6]: > 47.1 µM (inactive)

SMILES: Cc1cc(C(=O)Nc2ccc3c(c2)OCCO3)nn1C(C)(C)C
- EC50 [5]: > 53 µM (inactive)
- IC50 [6]: > 47.1 µM (inactive)

SMILES: O=C(O)/C=C\C(=O)Nc1ccc2c(c1)C(=O)c1cc(F)ccc1-2
- AC50 [1]: 0.794 µM (inconclusive)

SMILES: COC(=O)c1sccc1-c1ccc(C(=O)Nc2cccnc2)o1
- AC50 [1]: 0.282 µM (inconclusive)

SMILES: Cc1ccccc1OCC(=O)NC(=S)Nc1ccc(N2CCOCC2)c(Cl)c1
- AC50 [7]: 15.8 µM (inconclusive)
- AC50 [2]: 14.1 µM (inconclusive)
- AC50 [1]: 12.6 µM (inconclusive)

SMILES: Cc1ccc(NC(=O)CSCc2cc(=O)n3cc(C)sc3n2)c(C)c1
- EC50 [4]: > 195 µM (not active)

SMILES: Cn1cccc1C(=O)N1CCC[C@@]2(CCN(Cc3ccccc3)C2)C1
- AC50 [2]: 5.01 µM (inconclusive)
- AC50 [1]: 10 µM (inconclusive)

SMILES: COc1cccc(Nc2ncc3nc(C)c(=O)n(-c4ccccc4)c3n2)c1
- AC50 [7]: 31.6 µM (inconclusive)
- AC50 [8]: 25.1 µM (inconclusive)

SMILES: CC(C)NC(=S)N(CCc1ccncc1)C(C)C
- EC50 [5]: > 53 µM (inactive)
- IC50 [6]: > 47.1 µM (inactive)

SMILES: Cc1cc(C)c(NC(=O)C(C)Sc2nnc(-c3ccco3)n2-c2ccccc2)c(C)c1 (centres undefined)
- AC50 [1]: 22.4 µM (inconclusive)

SMILES: Cn1c(=O)c(-c2cccs2)nc2cnc(N3CCNCC3)nc21
- AC50 [7]: 39.8 µM (inconclusive)
- AC50 [2]: 25.1 µM (inconclusive)

SMILES: COc1ccc(NC(=O)N2CCC3(CC2)CCN(C(=O)c2csnn2)CC3)cc1
- AC50 [2]: 12.6 µM (inconclusive)
- AC50 [1]: 6.31 µM (inconclusive)

SMILES: COc1ccc(S(=O)(=O)Nc2c(C)n(C)n(-c3ccccc3)c2=O)cc1C(=O)O
- EC50 [5]: > 53 µM (inactive)
- IC50 [6]: > 47.1 µM (inactive)

SMILES: CC(C)C(NC(=O)C1CCCCC1)C(=O)NCc1ccccn1 (centres undefined)
- AC50 [2]: 15.8 µM (inconclusive)

SMILES: O=C(NCc1cn2ccccc2n1)C1CCC(=O)N(Cc2ccccc2F)C1 (centres undefined)
- EC50 [5]: > 53 µM (inactive)
- IC50 [6]: > 47.1 µM (inactive)

SMILES: CC12CCC(C/C1=N\OC(=O)c1c(F)cccc1F)C2(C)C (centres undefined)
- EC50 [5]: > 53 µM (inactive)
- IC50 [6]: > 47.1 µM (inactive)

SMILES: CCOC(=O)c1cc2c(=O)n3cccc(C)c3nc2n(CCOC)/c1=N\C(C)=O
- EC50 [4]: > 195 µM (not active)

SMILES: CCCCN(C(=O)CSc1nnc[nH]1)c1c(N)n(Cc2ccccc2)c(=O)[nH]c1=O
- EC50 [5]: > 53 µM (inactive)
- IC50 [6]: > 47.1 µM (inactive)

SMILES: CC1(C2CC2)NC(=O)N(CC(=O)Nc2ccccc2F)C1=O (centres undefined)
- EC50 [5]: > 53 µM (inactive)
- IC50 [6]: > 47.1 µM (inactive)

SMILES: COc1ccc(/C=N\NC(=O)C2C(=O)NCC2c2ccccc2)cc1O (centres undefined)
- AC50 [7]: 35.5 µM (inconclusive)
- AC50 [2]: 39.8 µM (inconclusive)
- AC50 [3]: 7.94 µM (inconclusive)

SMILES: CC1(C)CC(=O)C(/C=N/CCN2CCN(C(=S)Nc3ccc(F)cc3)CC2)=C(O)C1
- AC50 [7]: 25.1 µM (inconclusive)
- AC50 [2]: 25.1 µM (inconclusive)

SMILES: COc1ccc(COC(=O)N/N=C(\C)CC(=O)Nc2c(C)cc(C)cc2C)cc1
- AC50 [1]: 22.4 µM (inconclusive)
- AC50 [8]: 25.1 µM (inconclusive)

SMILES: Cc1ccc(C(=O)NCCNC(=O)CN2CCOCC2)cc1
- AC50 [2]: 28.2 µM (inconclusive)
- AC50 [8]: 0.708 µM (inconclusive)
